This is an account of results in patent US20140066431A1, “Benzoxazepines as Inhibitors of PI3K/mTOR and Methods of Their Use and Manufacture” (Exelixis, Inc., priority 2010, published 2014).

The target of the experiment is mTOR/GbL/Raptor (mTORC1) (Homo sapiens, UniProt P42345). As to the kind of experiment: mTOR/GbL/Raptor (mTORC1) ELISA assay. Format: biochemical. As to conditions: 0.2 nM mTORC1, 10 μM ATP, 50 nM 4E-BP1. As for the experimental part:
The measurement of mTORC1 enzyme activity was performed in an ELISA assay format following the phosphorylation of 4E-BP1 protein. All experiments were performed in the 384-well format. Generally, 0.5 μL DMSO containing varying concentrations of the test compound was mixed with 15 μL enzyme solution. Kinase reactions were initiated with the addition of 15 μL of substrates-containing solution. The assay conditions were as follows; 0.2 nM mTORC1, 10 μM ATP and 50 nM NHis-tagged 4E-BP1 in 20 mM Hepes, pH 7.2, 1 mM DTT, 50 mM NaCl, 10 mM MnCl2, 0.02 mg/mL BSA, 0.01% CHAPS, 50 mM β-glycerophosphate. Following an incubation of 120 minutes at ambient temperature, 20 μL of the reaction volume was transferred to a Ni-Chelate-coated 384-well plate. The binding step of the 4E-BP1 protein proceeded for 60 minutes, followed by washing 4 times each with 50 μL of Tris-buffered saline solution (TBS). Anti-phospho-4E-BP1 rabbit-IgG (20 μL, 1:5000) in 5% BSA-TBST (0.2% Tween-20 in TBS) was added and further incubated for 60 minutes. Incubation with a secondary HRP-tagged anti-IgG was similarly performed after washing off the primary antibody (4 washes of 50 μL). Following the final wash step with TBST, 20 μL of SuperSignal ELISA Femto (Pierce Biotechnology) was added and the luminescence measured using an EnVision plate reader.
For orientation: ELISA stands for enzyme-linked immunosorbent assay.

SMILES strings stand for the structures.

For the compound `Cc1nc2ccc(-c3ccc4c(c3)CN(C(=O)N3CCN(C(=O)c5ccco5)CC3)CCO4)cc2[nH]1` [compound 158, 4-{[4-(furan-2-ylcarbonyl)piperazin-1-yl]carbonyl}-7-(2-methyl-1H-benzimidazol-6-yl)-2,3,4,5-tetrahydro-1,4-benzoxazepine], the “IC50 (mTORC1 ELISA)” value is “not active”.
In the case of `Cc1nc2ccc(-c3ccc4c(c3)CN(C(=O)N3CCC(O)(C(F)(F)F)CC3c3ccc(F)c(F)c3)CCO4)cc2[nH]1` (stereo not drawn) [compound 119, 2-(3,4-difluorophenyl)-1-{[7-(2-methyl-1H-benzimidazol-6-yl)-2,3-dihydro-1,4-benzoxazepin-4(5H)-yl]carbonyl}-4-(trifluoromethyl)piperidin-4-ol], the “IC50 (mTORC1 ELISA)” value is on record as “not active”.
The value for `CCOC(=O)CN(Cc1ccccc1)C(=O)N1CCOc2ccc(-c3ccc4nc(C)[nH]c4c3)cc2C1` [compound 151, ethyl N-{[7-[2-methyl-1H-benzimidazol-6-yl)-2,3-dihydro-1,4-benzoxazepin-4(5H)-yl]carbonyl}-N-(phenylmethyl)glycinate] was “not active”.
With `Cc1nc2ccc(-c3ccc4c(c3)CN(C(=O)N3CC[C@H](O)C3)CCO4)cc2[nH]1` [compound 82, (3S)-1-{[7-(2-methyl-1H-benzimidazol-6-yl)-2,3-dihydro-1,4-benzoxazepin-4(5H)-yl]carbonyl}pyrrolidin-3-ol], the “IC50 (mTORC1 ELISA)” value is “not active”.
With `Cc1nc2ccc(-c3ccc4c(c3)CN(C(=O)N3CCC(C5CCNCC5)CC3)CCO4)cc2[nH]1` [compound 71, 1-{[7-(2-methyl-1H-benzimidazol-6-yl)-2,3-dihydro-1,4-benzoxazepin-4(5H)-yl]carbonyl}-4,4′-bipiperidine], the “IC50 (mTORC1 ELISA)” value was “not active”.
As for `Cc1nc2ccc(-c3ccc4c(c3)CN(C(=O)N3CCOCC3)CCO4)cc2[nH]1` [compound 132, 7-(2-methyl-1H-benzimidazol-6-yl)-4-(morpholin-4-ylcarbonyl)-2,3,4,5-tetrahydro-1,4-benzoxazepine], the “IC50 (mTORC1 ELISA)” value was “not active”.
In the case of `Cc1nc2ccc(-c3ccc4c(c3)CN(C(=O)N3CC[C@@H](O)C3)CCO4)cc2[nH]1` [compound 78, (3R)-1-{[7-(2-methyl-1H-benzimidazol-6-yl)-2,3-dihydro-1,4-benzoxazepin-4(5H)-yl]carbonyl}pyrrolidin-3-ol] it was “not active”.
The value for `Cc1nc2ccc(-c3ccc4c(c3)CN(C(=O)N3[C@@H]5CC[C@H]3C[C@@H](CO)C5)CCO4)cc2[nH]1` [compound 112, (8-{[7-(2-methyl-1H-benzimidazol-6-yl)-2,3-dihydro-1,4-benzoxazepin-4(5H)-yl]carbonyl}-8-azabicyclo[3.2.1]oct-3-(endo)-yl)methanol] was “not active”; that for `Cc1nc2ccc(-c3ccc4c(c3)CN(C(=O)N3CC[S+]([O-])CC3)CCO4)cc2[nH]1` [compound 101, 7-(2-methyl-1H-benzimidazol-6-yl)-4-[(1-oxidothiomorpholin-4-yl)carbonyl]-2,3,4,5-tetrahydro-1,4-benzoxazepine] was “not active”.
